Data published in patent US8865704B2, “Wnt pathway antagonists” (Siena Biotech S.p.A., priority 2009, dated 2014).

Tests used:
DBTRG cells = test: Soft agar anchorage independent assay; type: cell-based; details: 504 h, colonies scored 3 weeks later, read-out: 1050 value in the soft agar assay
Protocol: The pharmacological activity of the compounds of the invention may be tested in vitro for growth inhibition against tumour cell lines. Such cell lines may, for example be representative of glioblastoma (such as DBTRG-05MG), or colorectal (for example DLD-1, HCT116) cancer. The different genetic background of the cancer cell will facilitate to understand to which level of the pathway the compounds work. If the cells harbour a truncated APC allele, the destruction complex activity is affected; if cells carry a gain of function mutation in the β-catenin gene, which prevents β-catenin protein degradation, this leads to constitutive activation of downstream genes. There are many assays available for testing the growth inhibition.
Soft Agar Anchorage Independent Assay
DBTRG cells were seeded into a 24-well format in the presence of carrier alone or compound (0.6% DMSO (v/v)). Each well is composed of two agar layers: the bottom layer consists of 0.6% Agar while the top has 0.35% Agar plus cells and compound. Cells (2500 per well) were incubated with 7 points dilution compound the day of the plating and the colonies were scored 3 weeks later after o/n staining with MTT solution. Imaging and counting of the colonies was done with the GelCount™ instrument (Oxford Optronix, UK). For IC50 determination the data were expressed as % of control, values were calculated using XLFit version 4.2, with a four parameters sigmoid function (XLFit model 205).

Wnt/β-catenin pathway = test: Wnt reporter assay (TCF-Luciferase, Firefly) in DBTRG-05MG cells; type: cell-based; details: Homo sapiens, 24 hours after compound addition
Summary of the method: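 DBTRG-05MG cells carrying a 4×TCF-driven firefly luciferase reporter, kept under Zeocin or Zeocin plus Hygromicin selection. Compounds added 36 hours after plating at 8 points from 60 μM to 0.185 μM (0.6% DMSO), triplicate, for 24 hours. Firefly and Renilla luminescence each expressed as % of control; IC50 from four-parameter sigmoid fit.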

| IC50 (DBTRG cells) [µM] | IC50 (Wnt/β-catenin pathway) [µM] | Structure (SMILES) |
| --- | --- | --- |
| 0.9 to 30 | 0.3 to 30 | COc1ccc2[nH]c(=O)n(C[C@H]3CC[C@H](C(=O)N4CCN(C(C)=O)CC4)CC3)c(=O)c2c1 [Example 99] |
| 0.9 to 30 | 0.3 to 30 | O=C(C1CCC(Cn2c(=O)[nH]c3ccccc3c2=O)CC1)N1CCN(C(=O)C2CC2)CC1 (stereo not shown) [Example 47] |
| 0.9 to 30 | 0.3 to 30 | COc1ccc2[nH]c(=O)n(C[C@H]3CC[C@H](C(=O)N4CCN(C(=O)C(C)C)CC4)CC3)c(=O)c2c1 [Example 3, 3-[trans-4-(4-Isobutyryl-piperazine-1-carbonyl)-cyclohexylmethyl]-6-methoxy-1H-quinazoline-2,4-dione] |
| 0.9 to 30 | 0.3 to 30 | O=C(CC1CCCCC1)N1CCN(C(=O)[C@H]2CC[C@H](Cn3c(=O)[nH]c4ccccc4c3=O)CC2)CC1 [Example 59] |
| 0.9 to 30 | 0.3 to 30 | COc1ccc2c(c1)c(=O)n(C[C@H]1CC[C@H](C(=O)N3CCN(C(=O)c4ccno4)CC3)CC1)c(=O)n2C [Example 146] |
| 0.9 to 30 | 0.3 to 30 | O=c1[nH]c2ccc(Cl)cc2c(=O)n1C[C@H]1CC[C@H](C(=O)N2CCN(c3ccccc3)CC2)CC1 [Example 26] |
| 0.9 to 30 | 0.3 to 30 | O=C(C1CCCC1)N1CCN(C(=O)[C@H]2CC[C@H](Cn3c(=O)[nH]c4ccccc4c3=O)CC2)CC1 [Example 29] |
| 0.9 to 30 | 0.3 to 30 | Cn1c(=O)n(C[C@H]2CC[C@H](C(=O)N3CCOCC3)CC2)c2cc(C(F)(F)F)ccc21 [Example 10, 1-Methyl-3-[trans-4-(morpholine-4-carbonyl)-cyclohexylmethyl]-5-trifluoromethyl-1,3-dihydro-benzoimidazol-2-one] |
| 0.9 to 30 | 0.3 to 30 | COc1ccc2c(c1)c(=O)n(C[C@H]1CC[C@H](C(=O)N3CCN(C)C(=O)C3)CC1)c(=O)n2C [Example 92] |
| 0.9 to 30 | 0.3 to 30 | CC(=O)N1CCN(C(=O)[C@H]2CC[C@H](Cn3c(=O)[nH]c4ccc(Cl)cc4c3=O)CC2)CC1 [Example 27] |
| 0.9 to 30 | 0.3 to 30 | Cn1c(=O)n(C[C@H]2CC[C@H](C(=O)N3CCN(C(=O)C4CC4)CC3)CC2)c(=O)c2ccccc21 [Example 56] |
| 0.9 to 30 | 0.3 to 30 | COc1ccc2c(c1)c(=O)n(C[C@H]1CC[C@H](C(=O)N3CCN(C(=O)c4cncn4C)CC3)CC1)c(=O)n2C [Example 122] |
| 0.9 to 30 | 0.3 to 30 | COc1ccc2c(c1)CN(C[C@H]1CC[C@H](C(=O)N3CCN(C(=O)C4CC4)CC3)CC1)C(=O)N2 [Example 71] |
| 0.9 to 30 | 0.3 to 30 | COCC(=O)N1CCN(C(=O)[C@H]2CC[C@H](Cn3c(=O)[nH]c4ccc(OC)cc4c3=O)CC2)CC1 [Example 77] |
| 0.9 to 30 | 0.3 to 30 | COc1ccc2c(c1)c(=O)n(C[C@H]1CC[C@H](C(=O)N3CCN(C(C)=O)CC3)CC1)c(=O)n2C [Example 136] |
| 0.9 to 30 | 0.3 to 30 | Cn1c(=O)n(C[C@H]2CC[C@H](C(=O)N3CCN(C(=O)C4CC4)CC3)CC2)c2ccccc21 [Example 80] |
|  | 0.3 to 30 | O=C(C1CC1)N1CCN(C(=O)[C@H]2CC[C@H](CN3Cc4ccccc4NC3=O)CC2)CC1 [Example 7, 3-[trans-4-(4-Cyclopropanecarbonyl-piperazine-1-carbonyl)cyclohexylmethyl]-3,4-dihydro-1H-quinazolin-2-one] |
|  | 0.3 to 30 | CC(C)C(=O)N1CCN(C(=O)[C@H]2CC[C@H](Cn3c(=O)[nH]c4ccccc4c3=O)CC2)CC1 [Example 30] |
|  | 0.3 to 30 | COc1ccc2[nH]c(=O)n(C[C@H]3CC[C@H](C(=O)N4CCN(C)C(=O)C4)CC3)c(=O)c2c1 [Example 86] |

| Structure (SMILES) | IC50 (DBTRG cells) [µM] | IC50 (Wnt/β-catenin pathway) [µM] |
| --- | --- | --- |
| CCCC(=O)N1CCN(C(=O)[C@H]2CC[C@H](Cn3c(=O)c4ccccc4n(C)c3=O)CC2)CC1 [Example 5, 3-[trans-4-(4-Butyryl-piperazine-1-carbonyl)-cyclohexylmethyl]-1-methyl-1H-quinazoline-2,4-dione] | 0.9 to 30 | 0.3 to 30 |
